Here are results for 46 compounds from US20230357253A1, “AGONISTS OF STIMULATOR OF INTERFERON GENES STING” (THE SCRIPPS RESEARCH INSTITUTE, priority 2020, published 2023).

A value given as a limit tells only on which side of the number the result lay.

In this assay the test system is THP-1 Lucia ISG cells. In words: ISRE-luciferase assay (ISG-LUC activation). Format: cell-based. To be noted: Homo sapiens, THP1-Lucia ISG, 24 hours, luciferase reporter. How it is done:
ISRE-luciferase assay. THP-1 Lucia ISG cells were resuspended in low-serum growth media (2% FBS) at a density of 5×10^5 cells/ml and treated with test article or vehicle (DMSO). 50 μL of cells were seeded into each well of a 384-well white greiner plates and incubated for 24 hours. To evaluate expression of the luciferase reporter, 30 μl of Quanti-luc (Invivogen) detection reagent was added to each well and luminescence was read using an Envision plate reader (Perkin Elmer) set with an integration time of 0.1 seconds. For each cell type, luminescence signals for test article samples were normalized to vehicle-treated samples and reported as relative light units (RLU).
Consider `N#Cc1cc(C(=O)O)c(NC(=O)c2ccc(-n3ccnc3)nn2)cc1CCCc1cc(NC(=O)c2ccc(-n3ccnc3)nn2)c(C(=O)O)cc1F` [Compound 182], for which the EC50 (as a rule, the concentration needed to bring the measured effect to its halfway point) lay within 50 to 500 nM. Compound `COc1cc(C(=O)O)c(NC(=O)c2ccc(-n3ccnc3)nn2)cc1OCCc1cc(C(=O)O)c(NC(=O)c2ccc(-n3ccnc3)nn2)cc1Cl` [Compound 156] yielded an EC50 of 50 to 500 nM. `O=C(Nc1cc(CCCc2cc(NC(=O)c3ccc(-n4ccnc4)nn3)c(C(=O)O)cc2Cl)c(F)cc1C(=O)O)c1ccc(-n2ccnc2)nn1` [Compound 174] displayed an EC50 of 50 to 500 nM.

As to `CC(Cc1cc(NC(=O)c2ccc(-n3ccnc3)nn2)c(C(=O)O)cc1F)Cc1cc(NC(=O)c2ccc(-n3ccnc3)nn2)c(C(=O)O)cc1F` [Compound 194], the EC50 lay within 50 to 500 nM. The result for `O=C(Nc1cc(OCCc2c(F)cc(NC(=O)c3ccc(-n4ccnc4)nn3)c(C(=O)O)c2F)c(F)cc1C(=O)O)c1ccc(-n2ccnc2)nn1` [Compound 177] reads < 50 nM. As for `O=C(Nc1cc(CCCc2cc(NC(=O)c3ccc(-n4ccnc4)nn3)c(C(=O)O)cc2F)c(F)cc1C(=O)O)c1ccc(-c2cn[nH]c2)nn1` [Compound 159], the EC50 lay in the range of 50 to 500 nM. Under `O=c1oc(-c2ccc(-n3ccnc3)nn2)nc2cc(OCCCCOc3cc4nc(-c5ccc(-n6ccnc6)nn5)oc(=O)c4cc3F)c(F)cc12` [Compound 40] stands < 50 nM.

Regarding `COC(=O)c1cc(F)c(COCc2cc(NC(=O)c3ccc(-n4ccnc4)nn3)c(C(=O)OC)cc2F)cc1NC(=O)c1ccc(-n2ccnc2)nn1` [Compound 155], the EC50 is < 50 nM. Under `O=C(Nc1c(C(=O)O)cc(F)c(OCCCCOc2c(F)cc(C(=O)O)c(NC(=O)c3ccc(-n4ccnc4)nn3)c2F)c1F)c1ccc(-n2ccnc2)nn1` [Compound 38] stands 50 to 500 nM; under `O=C(Nc1cc(OCCOc2cc(C(=O)O)c(NC(=O)c3ccc4nnnn4n3)cc2F)ccc1C(=O)O)c1ccc2nnnn2n1` [Compound 26], > 5000 nM. `O=C(Nc1cc(COc2cc(NC(=O)c3ccc(-n4ccnc4)nn3)c(C(=O)O)cc2F)c(F)cc1C(=O)O)c1ccc(-n2ccnc2)nn1` [Compound 175] came in with an EC50 of 500 to 5000 nM. `O=C(Nc1cc(CCCOc2cc(NC(=O)c3ccc4nnnn4n3)c(C(=O)O)cc2F)c(F)cc1C(=O)O)c1ccc(-n2ccnc2)nn1` [Compound 126] displayed an EC50 of 500 to 5000 nM. For `O=C(Nc1cc(CCCc2cc(C(=O)O)c(NC(=O)c3ccc(-n4ccnc4)nn3)cc2F)ccc1C(=O)O)c1ccc(-n2ccnc2)nn1` [Compound 78], the EC50 lay within 50 to 500 nM.

In turn, `O=C(Nc1cc(CCCc2cc(NC(=O)c3ccc(-n4ccnc4)nn3)c(C(=O)O)cc2F)c(F)cc1C(=O)O)c1ccc(-n2ccnc2)nn1` [Compound 3, 4,4′-(propane-1,3-diyl)bis(2-(6-(1H-imidazol-1-yl)pyridazine-3-carbox-amido)-5-fluorobenzoic acid)] registered an EC50 of 50 to 500 nM.

As for `O=C(Nc1cc(OCCCCOc2ccc(C(=O)O)c(NC(=O)c3ccc(-n4ccnc4)nn3)c2)ccc1C(=O)O)c1cccnn1` [Compound 44], the EC50 was > 5000 nM.

As for `O=C(Nc1cc(OCCCCOc2cc(NC(=O)c3ccc(-n4ccnc4)nn3)c(C(=O)O)cc2F)ccc1C(=O)O)c1ccc(-n2ccnc2)nn1` [Compound 19], the EC50 was in the range of 500 to 5000 nM. Take `O=C(Nc1cc(OCCc2cc(C(=O)O)c(NC(=O)c3ccc(-n4ccnc4)nn3)cc2Cl)c(F)cc1C(=O)O)c1ccc(-n2ccnc2)nn1` [Compound 166]: the EC50 was in the range of 50 to 500 nM. `COC(=O)c1cc(F)c(CCCc2cc(NC(=O)c3ccc(-n4ccnc4)nn3)c(C(=O)OC)cc2F)cc1NC(=O)c1ccc(-n2ccnc2)nn1` [Compound 51]: the EC50 is < 50 nM.

With `O=C(Nc1cc(OCCc2cc(C(=O)O)c(NC(=O)c3ccc(-n4ccnc4)nn3)cc2F)c(F)cc1C(=O)O)c1ccc(-n2ccnc2)nn1` [Compound 144], the EC50 lay in the range of 50 to 500 nM.

On to `O=C(Nc1cc(CCSc2cc(NC(=O)c3ccc(-n4ccnc4)nn3)c(C(=O)O)cc2F)c(F)cc1C(=O)O)c1ccc(-n2ccnc2)nn1` [Compound 195], for which the EC50 was < 50 nM. Consider `COC(=O)c1cc(Cl)c(CCCc2ccc(C(=O)OC)c(NC(=O)c3ccc4nnnn4n3)c2)cc1NC(=O)c1ccc(-n2ccnc2)nn1` [Compound 106], for which the EC50 is < 50 nM. In the case of `O=C(Nc1cc(CCCc2cc(NC(=O)c3ccc(-n4ccnc4)nn3)c(C(=O)O)cc2F)ccc1C(=O)O)c1ccc(-n2ccnc2)nn1` [Compound 68], the EC50 was 50 to 500 nM. Consider `COC(=O)c1cc(F)c(OCCc2cc(NC(=O)c3ccc(-n4ccnc4)nn3)c(C(O)C(=O)OC)cc2F)cc1NC(=O)c1ccc(-n2ccnc2)nn1` (stereo not shown) [Compound 152], for which the EC50 lay in the range of 500 to 5000 nM. The result for `COC(=O)c1cc(F)c(OCCc2cc(C(=O)OC)c(NC(=O)c3ccc(-n4ccnc4)nn3)cc2C#N)cc1NC(=O)c1ccc(-n2ccnc2)nn1` [Compound 188] reads > 5000 nM.

In turn, `O=C(Nc1cc(CCCc2cc(NC(=O)c3ccc(-n4ccnc4)nn3)c(C(=O)O)s2)c(F)cc1C(=O)O)c1ccc(-n2ccnc2)nn1` [Compound 164] registered an EC50 of 50 to 500 nM. Under `O=C(Nc1cc(CCCc2ccc(NC(=O)c3ccc4nnnn4n3)c(C(=O)O)c2)ccc1C(=O)O)c1ccc2nnnn2n1` [Compound 13] stands 500 to 5000 nM. Under `O=C(Nc1cc(CCOc2cc(C(=O)O)c(NC(=O)c3ccc(-n4ccnc4)nn3)cc2F)c(F)cc1C(=O)O)c1ccc(-n2ccnc2)nn1` [Compound 141] stands 50 to 500 nM. The result for `COc1cc(C(=O)O)c(NC(=O)c2ccc(-n3ccnc3)nn2)cc1CCCc1ccc(C(=O)O)c(NC(=O)c2ccc(-n3ccnc3)nn2)c1` [Compound 56] reads 50 to 500 nM.

`O=C(Nc1cc(CCOc2cc(NC(=O)c3ccc(-c4cn[nH]c4)nn3)c(C(=O)O)cc2F)c(F)cc1C(=O)O)c1ccc(-c2cn[nH]c2)nn1` [Compound 4, 2-(6-(1H-pyrazol-4-yl)pyridazine-3-carboxamido)-4-(5-(6-(1H-pyrazol-4-yl)pyridazine-3-carboxamido)-4-carboxy-2-fluorophenethoxy)-5-fluorobenzoic acid]: the EC50 was 50 to 500 nM. Under `COc1nc(C(=O)O)c(NC(=O)c2ccc(-n3ccnc3)nn2)cc1CCCc1cc(NC(=O)c2ccc(-n3ccnc3)nn2)c(C(=O)O)cc1F` [Compound 134] stands 50 to 500 nM; under `O=C(Nc1c(C(=O)O)cc(F)c(OCCCCOc2c(F)cc(C(=O)O)c(NC(=O)c3ccc(-n4ccnc4)nn3)c2F)c1F)c1ccc(O)nn1` [Compound 39], > 5000 nM.

The compound `O=C(Nc1cc(OCCc2cc(C(=O)O)c(NC(=O)c3ccc(-c4cn[nH]c4)nn3)cc2F)c(F)cc1C(=O)O)c1ccc(-c2cn[nH]c2)nn1` [Compound 204] gave a 50% effective concentration (EC50) of 50 to 500 nM.

Consider `O=C(Nc1cc(CCCc2ccc(C(=O)O)c(NC(=O)c3ccc4nnnn4n3)c2)ccc1C(=O)O)c1ccc(-n2ccnc2)nn1` [Compound 63], for which the EC50 is > 5000 nM. The result for `O=C(Nc1cc(OCCc2cc(C(=O)O)c(NC(=O)c3ccc4nnnn4n3)cc2F)c(F)cc1C(=O)O)c1ccc(-n2ccnc2)nn1` [Compound 169] reads 50 to 500 nM; that for `O=C(Nc1cc(OCCCOc2cc(C(=O)O)c(NC(=O)c3ccc(-n4ccnc4)nn3)cc2F)c(F)cc1C(=O)O)c1ccc(-n2ccnc2)nn1` [Compound 10, 2-(6-(1H-imidazol-1-yl)pyridazine-3-carboxamido)-5-(3-(5-(6-(1H-imidazol-1-yl)pyridazine-3-carboxamido)-4-carboxy-2-fluorophenoxy)propoxy)-4-fluoro-benzoic acid], 50 to 500 nM. Under `O=C(Nc1cc(CCCOc2cc(NC(=O)c3ccc(-n4ccnc4)nn3)c(C(=O)O)cc2F)c(F)cc1C(=O)O)c1ccc(-n2ccnc2)nn1` [Compound 125] stands 500 to 5000 nM; under `COC(=O)c1cc(F)c(OCCCCOc2cc(NC(=O)c3ccc(-n4ccnc4)nn3)c(C(=O)OC)cc2F)cc1NC(=O)c1ccc(-n2ccnc2)nn1` [Compound 34], > 5000 nM. The result for `O=C(Nc1cc(OCCOc2cc(C(=O)O)c(NC(=O)c3ccc(-n4ccnc4)nn3)cc2F)c(F)cc1C(=O)O)c1ccc(-n2ccnc2)nn1` [Compound 191] reads 50 to 500 nM; that for `COC(=O)c1cc(Cl)c(OCCCCOc2cc(NC(=O)c3ccc(-n4ccnc4)nn3)c(C(=O)OC)cc2Cl)cc1NC(=O)c1ccc(-n2ccnc2)nn1` [Compound 23], < 50 nM; that for `C#Cc1cc(NC(=O)c2ccc(-n3ccnc3)nn2)c(C(=O)O)cc1OCCc1cc(NC(=O)c2ccc(-n3ccnc3)nn2)c(C(=O)O)cc1F` [Compound 209], < 50 nM. With `COC(=O)c1cc(F)c(OCCc2c(OC)cc(NC(=O)c3ccc(-n4ccnc4)nn3)c(C(=O)OC)c2F)cc1NC(=O)c1ccc(-n2ccnc2)nn1` [Compound 150], the EC50 was > 5000 nM. Turning to `O=C(Nc1cc(CCc2cc(C(=O)O)c(NC(=O)c3ccc(-n4ccnc4)nn3)cc2F)c(F)cc1C(=O)O)c1ccc(-n2ccnc2)nn1` [Compound 180], the EC50 is > 5000 nM.

Take `O=C(Nc1cc(OCCCOc2cc(C(=O)O)c(NC(=O)c3ccc4nnnn4n3)cc2F)c(F)cc1C(=O)O)c1ccc2nnnn2n1` [Compound 33]: the EC50 is > 5000 nM. Compound `COC(=O)c1cc(F)c(OCCc2cc(NC(=O)c3ccc(-n4ccnc4)nn3)c(C(=O)OC)cc2C#N)cc1NC(=O)c1ccc(-n2ccnc2)nn1` [Compound 157] returned an EC50 of 500 to 5000 nM. Turning to `COc1cc(C(=O)O)c(NC(=O)c2ccc(-n3ccnc3)nn2)cc1OCCc1cc(C(=O)O)c(NC(=O)c2ccc3nnnn3n2)cc1Cl` [Compound 6, 2-(6-(1H-imidazol-1-yl)pyridazine-3-carboxamido)-4-(5-carboxy-2-chloro-4-(tetrazolo[1,5-b]pyridazine-6-carboxamido)phenethoxy)-5-methoxybenzoic acid], the EC50 lay in the range of 50 to 500 nM. The result for `O=C(Nc1cc(CCCc2cc(C(=O)O)c(NC(=O)c3ccc4nnnn4n3)cc2F)c(F)cc1C(=O)O)c1ccc(-n2ccnc2)nn1` [Compound 90] reads 500 to 5000 nM.
